Experiments:
Experiment in all cases: competitive isoTOP-ABPP
Assay type in all cases: binding
[1] = molecular target: T1, CNOT4 CCR4-NOT transcription complex subunit 4 (Homo sapiens, UniProt O95628)
T1 construct: isoTOP-ABPP experiments performed in cell lysates (in vitro); endogenous in cells; host or cells: MDA-MB-231 soluble lysate
T1 sequence (O95628 1-575): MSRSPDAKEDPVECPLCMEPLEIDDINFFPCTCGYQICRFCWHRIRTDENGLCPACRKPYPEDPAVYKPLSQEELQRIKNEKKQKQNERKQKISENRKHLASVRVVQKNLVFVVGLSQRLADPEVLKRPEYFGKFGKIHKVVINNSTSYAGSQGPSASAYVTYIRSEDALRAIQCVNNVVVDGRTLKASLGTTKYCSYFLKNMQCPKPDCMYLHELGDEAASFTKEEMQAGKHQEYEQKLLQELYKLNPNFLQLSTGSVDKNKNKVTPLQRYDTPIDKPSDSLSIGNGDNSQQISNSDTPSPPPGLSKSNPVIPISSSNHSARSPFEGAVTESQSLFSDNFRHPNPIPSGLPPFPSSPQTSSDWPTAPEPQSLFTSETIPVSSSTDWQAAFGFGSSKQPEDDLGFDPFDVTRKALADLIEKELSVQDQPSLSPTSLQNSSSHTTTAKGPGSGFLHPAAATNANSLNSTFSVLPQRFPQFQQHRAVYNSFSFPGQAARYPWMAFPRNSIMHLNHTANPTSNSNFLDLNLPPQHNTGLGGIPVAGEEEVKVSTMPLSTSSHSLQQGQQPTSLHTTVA
Method in brief: (§1)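 Fragments at 50 μM (activated esters) or 100 μM (guanidinylating agents) were incubated with 0.5 ml lysate before probe labeling. After 0.1 mM STP-alkyne for 1 h, samples were clicked to isotopically distinct TEV tags, and R taken as DMSO-over-compound MS1 peak-area ratio.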

[2] = molecular target: T2, ERAP1 Endoplasmic reticulum aminopeptidase 1 (Homo sapiens, UniProt Q9NZ08)
T2 construct: endogenous in cells; host or cells: MDA-MB-231 lysate
T2 sequence (Q9NZ08 whole entry): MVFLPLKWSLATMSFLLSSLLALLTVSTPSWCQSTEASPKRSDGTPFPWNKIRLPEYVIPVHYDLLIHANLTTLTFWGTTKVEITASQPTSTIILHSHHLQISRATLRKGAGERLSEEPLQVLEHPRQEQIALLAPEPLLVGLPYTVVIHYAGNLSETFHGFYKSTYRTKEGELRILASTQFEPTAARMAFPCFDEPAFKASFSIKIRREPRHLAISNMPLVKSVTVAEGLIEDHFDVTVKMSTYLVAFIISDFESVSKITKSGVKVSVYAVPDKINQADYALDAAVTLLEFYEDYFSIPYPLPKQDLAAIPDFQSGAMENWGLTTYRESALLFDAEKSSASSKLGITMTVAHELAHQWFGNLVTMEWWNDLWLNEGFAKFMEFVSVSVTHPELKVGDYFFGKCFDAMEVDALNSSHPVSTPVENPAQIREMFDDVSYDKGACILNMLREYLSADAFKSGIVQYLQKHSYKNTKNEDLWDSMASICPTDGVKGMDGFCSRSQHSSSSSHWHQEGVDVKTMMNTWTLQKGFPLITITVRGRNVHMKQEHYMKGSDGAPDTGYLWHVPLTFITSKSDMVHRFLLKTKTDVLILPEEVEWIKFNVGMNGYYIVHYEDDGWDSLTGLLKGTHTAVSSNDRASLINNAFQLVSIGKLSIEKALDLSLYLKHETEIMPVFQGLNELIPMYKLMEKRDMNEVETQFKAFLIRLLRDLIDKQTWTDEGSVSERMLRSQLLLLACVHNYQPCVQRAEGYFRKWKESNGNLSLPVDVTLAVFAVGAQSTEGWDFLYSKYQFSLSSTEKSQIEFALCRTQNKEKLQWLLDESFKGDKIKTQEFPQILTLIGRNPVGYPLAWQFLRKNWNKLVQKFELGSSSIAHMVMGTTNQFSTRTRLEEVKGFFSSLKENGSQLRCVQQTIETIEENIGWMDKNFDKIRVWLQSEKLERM
Method in brief: as §1

[3] = molecular target: T3, UCHL5 Ubiquitin carboxyl-terminal hydrolase isozyme L5 (Homo sapiens, UniProt Q9Y5K5)
T3 construct: endogenous in cells; host or cells: MDA-MB-231 (soluble fraction of lysate)
T3 sequence (Q9Y5K5 1-329): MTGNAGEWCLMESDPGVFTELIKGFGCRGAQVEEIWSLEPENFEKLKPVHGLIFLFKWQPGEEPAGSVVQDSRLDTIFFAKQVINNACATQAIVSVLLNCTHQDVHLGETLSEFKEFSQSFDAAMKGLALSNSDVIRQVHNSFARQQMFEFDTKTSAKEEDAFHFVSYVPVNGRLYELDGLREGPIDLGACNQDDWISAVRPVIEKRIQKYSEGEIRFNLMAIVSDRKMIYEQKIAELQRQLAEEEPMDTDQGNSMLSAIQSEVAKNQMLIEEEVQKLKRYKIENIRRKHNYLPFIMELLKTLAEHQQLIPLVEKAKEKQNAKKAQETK
Method in brief: as §1

[4] = molecular target: T4, XRCC6 X-ray repair cross-complementing protein 6 (Homo sapiens, UniProt P12956)
T4 construct: isoTOP-ABPP experiments performed in cell lysates (in vitro); endogenous in cells; host or cells: soluble proteome of human cancer cell lines (MDA-MB-231; Ramos and Jurkat also prepared)
T4 sequence (P12956 2-609 limits assumed): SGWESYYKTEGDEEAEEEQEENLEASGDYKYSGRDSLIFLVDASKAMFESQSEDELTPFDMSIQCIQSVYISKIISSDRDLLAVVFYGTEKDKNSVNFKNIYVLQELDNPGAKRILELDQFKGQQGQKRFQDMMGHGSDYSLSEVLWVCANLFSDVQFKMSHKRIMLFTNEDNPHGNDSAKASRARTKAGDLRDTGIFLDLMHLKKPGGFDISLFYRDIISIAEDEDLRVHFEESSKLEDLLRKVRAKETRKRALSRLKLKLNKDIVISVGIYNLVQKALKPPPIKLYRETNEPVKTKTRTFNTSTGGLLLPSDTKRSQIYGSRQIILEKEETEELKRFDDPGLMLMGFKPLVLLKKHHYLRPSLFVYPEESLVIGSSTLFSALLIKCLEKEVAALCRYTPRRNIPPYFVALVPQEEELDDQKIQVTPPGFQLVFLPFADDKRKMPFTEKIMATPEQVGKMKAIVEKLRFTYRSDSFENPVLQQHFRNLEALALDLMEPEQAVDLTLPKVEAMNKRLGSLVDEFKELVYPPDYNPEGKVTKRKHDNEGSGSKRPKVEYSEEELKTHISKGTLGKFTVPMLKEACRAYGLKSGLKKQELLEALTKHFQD
T4 sequence (P13010 2-732 partner limits assumed): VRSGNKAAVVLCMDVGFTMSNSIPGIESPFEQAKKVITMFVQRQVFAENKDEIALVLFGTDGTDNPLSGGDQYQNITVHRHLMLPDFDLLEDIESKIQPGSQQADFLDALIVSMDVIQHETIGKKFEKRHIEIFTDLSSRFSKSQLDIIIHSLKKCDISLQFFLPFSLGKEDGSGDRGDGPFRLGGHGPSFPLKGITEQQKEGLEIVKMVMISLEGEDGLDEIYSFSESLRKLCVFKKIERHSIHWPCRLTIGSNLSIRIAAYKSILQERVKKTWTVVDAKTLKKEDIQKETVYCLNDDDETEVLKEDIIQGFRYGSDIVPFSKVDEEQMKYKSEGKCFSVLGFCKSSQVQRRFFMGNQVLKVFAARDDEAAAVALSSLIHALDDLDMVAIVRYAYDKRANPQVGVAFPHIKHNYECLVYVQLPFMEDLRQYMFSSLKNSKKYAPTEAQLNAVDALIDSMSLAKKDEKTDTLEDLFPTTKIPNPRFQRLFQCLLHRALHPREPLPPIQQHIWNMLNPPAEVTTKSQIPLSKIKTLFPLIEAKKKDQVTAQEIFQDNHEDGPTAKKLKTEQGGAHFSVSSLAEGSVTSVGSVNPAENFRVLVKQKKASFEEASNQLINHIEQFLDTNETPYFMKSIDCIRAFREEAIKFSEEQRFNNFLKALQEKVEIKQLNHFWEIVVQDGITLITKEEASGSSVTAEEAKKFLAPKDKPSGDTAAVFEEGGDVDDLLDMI
Method in brief: as §1

Structure (SMILES) | isoTOP-ABPP ratio, lysine O95628_K134 ([1]; 50 uM_231_sol_in vitro) | isoTOP-ABPP ratio, lysine Q9NZ08_K685 ([2]; 50 uM_231_sol_in vitro) | isoTOP-ABPP ratio, lysine Q9Y5K5_K323 ([3]; 50 uM_231_sol_in vitro) | isoTOP-ABPP ratio, lysine P12956_K351 ([4]; 50 uM_231_sol_in vitro) | isoTOP-ABPP ratio, lysine O95628_K134 ([1]; 100 uM_231_sol_in vitro) | isoTOP-ABPP ratio, lysine Q9NZ08_K685 ([2]; 100 uM_231_sol_in vitro) | isoTOP-ABPP ratio, lysine Q9Y5K5_K323 ([3]; 100 uM_231_sol_in vitro) | isoTOP-ABPP ratio, lysine P12956_K351 ([4]; 100 uM_231_sol_in vitro)
O=C(CCc1ccc2c(c1)OCO2)Oc1ccc([N+](=O)[O-])cc1[N+](=O)[O-] [fragment 45, 2,4-Dinitrophenyl 3-(benzo[d][1,3]dioxol-5-yl)propanoate] | 2.8 | 1.3 | 1.5 | 1.9 |  |  |  | 
O=C(ON1C(=O)CCC1=O)c1cc(C(F)(F)F)cc(C(F)(F)F)c1 [fragment 46, 3,5-Bis(trifluoromethyl)benzoic acid NHS ester] | 5.2 | 2.1 | 1.0 | 2.5 |  |  |  | 
O=C(Oc1c(F)c(F)c(C(F)(F)F)c(F)c1F)c1cc(C(F)(F)F)cc(C(F)(F)F)c1 [fragment 47, 2,3,5,6-Tetrafluoro-4-(trifluoromethyl)phenyl 3,5-bis(trifluoromethyl)benzoate] | 1.5 | 1.3 | 1.4 | 1.4 |  |  |  | 
COC(=O)NC(=NC(=O)OCC1c2ccccc2-c2ccccc21)n1cccn1 [fragment 49, N-Methoxycarbonyl-N′-9-fluorenylmethoxycarbonyl-pyrazole-1-carboxamidine] |  |  |  |  | 1.4 | 1.6 | 9.0 | 20.0
CC(C)(C)OC(=O)N=C(NC(=O)OC(C)(C)C)n1cccn1 [fragment 50, reference compound] |  |  |  |  | 1.7 | 20.0 | 2.2 | 6.0
NC(=O)c1cc(C(F)(F)F)cc(C(F)(F)F)c1 [fragment 51, reference compound] | 0.9 | 0.9 | 1.0 | 0.8 |  |  |  | 

Reference: patent publication US20210255193A1, “LYSINE REACTIVE PROBES AND USES THEREOF” (The Scripps Research Institute, priority 2017, published 2021)
